For one test, the system named is AP-1 induced transcriptional activity. In words: Cellular Transrepressional Assay (AP-1 luciferase reporter, PMA-activated A549 cells). Particulars: Homo sapiens, A549, 7 h, maximum inhibition, Cellular Transrepression Assay; read-out: AP-1 Max % inh (Cellular Transrepression Assay). Format: cell-based. Put shortly:
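Compounds tested from 0.1 nM to 40 μM during a 7 h PMA (10 ng/ml) stimulation of A549 cells stably transfected with 7× AP-1 sites driving luciferase. Repression expressed as % reduction of PMA-induced luminescence; EC50 by curve fitting.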
A general note: In a reporter assay the amount or activity of a reporter protein is the signal.
Consider `CC(=O)N1CCCN(C(=O)c2ccc(-c3ccc4c(n3)Oc3ccccc3[C@@H]4C(C)(C)C(=O)Nc3nncs3)cc2)CC1` [Example 277], for which the Emax came out at 24.5%.
`CN(CCO)C(=O)c1ccc(-c2ccc3c(n2)Oc2ccccc2[C@@H]3C(C)(C)C(=O)Nc2nncs2)cc1` [Example 294]: the Emax is 59.4%.
The same measure, in the same setting: the same measure for `CC(=O)N[C@@H]1CCN(C(=O)c2ccc(-c3ccc4c(n3)Oc3ccccc3[C@@H]4C(C)(C)C(=O)Nc3nncs3)cc2)C1` [Example 306]: 43.5%; for `CN(C)[C@@H]1CCN(C(=O)c2ccc(-c3ccc4c(n3)Oc3ccccc3[C@@H]4C(C)(C)C(=O)Nc3nncs3)cc2)C1` [Example 307]: 37.1%.
Turning to `COC(=O)[C@H]1CCCCN1C(=O)c1ccc(-c2ccc3c(n2)Oc2ccccc2[C@@H]3C(C)(C)C(=O)Nc2nncs2)cc1` [Example 291], the Emax stood at 27%.
The same measure, in the same setting: the value for `CC(C)(C(=O)Nc1nncs1)[C@H]1c2ccccc2Oc2nc(-c3ccc(C(=O)NCc4ccccc4)cc3)ccc21` [Example 349] was 31.7%.

The target of a further test is T1, human full-length glucocorticoid receptor (Homo sapiens, UniProt P04150).
T1 sequence (P04150 1-777): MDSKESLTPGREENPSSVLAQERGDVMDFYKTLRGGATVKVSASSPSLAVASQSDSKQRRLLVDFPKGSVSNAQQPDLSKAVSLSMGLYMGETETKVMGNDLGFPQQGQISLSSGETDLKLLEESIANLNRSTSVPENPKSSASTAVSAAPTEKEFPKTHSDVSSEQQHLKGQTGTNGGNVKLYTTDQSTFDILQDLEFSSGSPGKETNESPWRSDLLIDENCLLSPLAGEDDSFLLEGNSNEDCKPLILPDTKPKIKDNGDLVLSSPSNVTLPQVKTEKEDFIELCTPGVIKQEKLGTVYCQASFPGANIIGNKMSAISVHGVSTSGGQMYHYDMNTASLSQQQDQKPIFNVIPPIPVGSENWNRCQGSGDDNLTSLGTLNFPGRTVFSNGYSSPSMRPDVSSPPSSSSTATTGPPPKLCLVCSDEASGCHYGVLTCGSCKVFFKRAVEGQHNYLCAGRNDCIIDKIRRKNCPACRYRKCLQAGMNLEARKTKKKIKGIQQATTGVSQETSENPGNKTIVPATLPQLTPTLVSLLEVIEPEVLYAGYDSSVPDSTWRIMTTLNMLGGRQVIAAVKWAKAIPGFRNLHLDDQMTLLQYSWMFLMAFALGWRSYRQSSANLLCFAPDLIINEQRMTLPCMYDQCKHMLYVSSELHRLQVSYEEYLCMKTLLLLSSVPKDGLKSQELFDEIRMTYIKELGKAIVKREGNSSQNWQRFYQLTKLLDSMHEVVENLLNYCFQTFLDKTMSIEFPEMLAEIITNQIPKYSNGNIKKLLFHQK
The test is described as follows: Glucocorticoid Receptor Binding Assay (I), fluorescence polarization, Fluormone GS Red. Also on record: purified human recombinant full-length glucocorticoid receptor; purchased Invitrogen Part #2893. Particulars: GR Binding Assay (I); read-out: GR (Ki, nM) (GR Binding Assay (I)). How it is done:
Glucocorticoid Receptor Binding Assay (I)^a
Briefly, purified human recombinant full-length glucocorticoid receptor (2 nM) was mixed with fluorescently labeled glucocorticoid (1 nM Fluormone GS Red) in the presence or absence of test compound. After two hour incubation at room temperature in the dark, the fluorescence polarization (FP) of the samples was measured. […] Test compounds were analyzed in the concentration range from 8.5E-05 μM to 5 μM.
(In general: Fluorescence polarisation rises when a labelled molecule tumbles more slowly, as on binding a larger partner.)
For orientation: Ki means a measure of affinity in units of concentration, obtained from inhibition or displacement. `CC(=O)N1CCCN(C(=O)c2ccc(-c3ccc4c(n3)Oc3ccccc3[C@@H]4C(C)(C)C(=O)Nc3nncs3)cc2)CC1` [Example 277]: the Ki was 81.3 nM.
Take `CN(CCO)C(=O)c1ccc(-c2ccc3c(n2)Oc2ccccc2[C@@H]3C(C)(C)C(=O)Nc2nncs2)cc1` [Example 294]: the Ki came out at 29.3 nM.
Same read-out and setting: the value for `CC(=O)N[C@@H]1CCN(C(=O)c2ccc(-c3ccc4c(n3)Oc3ccccc3[C@@H]4C(C)(C)C(=O)Nc3nncs3)cc2)C1` [Example 306] was 9.85 nM; that for `CN(C)[C@@H]1CCN(C(=O)c2ccc(-c3ccc4c(n3)Oc3ccccc3[C@@H]4C(C)(C)C(=O)Nc3nncs3)cc2)C1` [Example 307] was 67.5 nM.
On the same count and under the same terms, the same measure for `COC(=O)[C@H]1CCCCN1C(=O)c1ccc(-c2ccc3c(n2)Oc2ccccc2[C@@H]3C(C)(C)C(=O)Nc2nncs2)cc1` [Example 291]: 44 nM; for `CC(C)(C(=O)Nc1nncs1)[C@H]1c2ccccc2Oc2nc(-c3ccc(C(=O)NCc4ccccc4)cc3)ccc21` [Example 349]: 5.88 nM.
On the same count and under the same terms, the value for `CN(C(=O)c1ccc(-c2ccc3c(n2)Oc2ccccc2[C@@H]3C(C)(C)C(=O)Nc2nncs2)cc1)C1CCS(=O)(=O)C1` (stereo partly drawn) [Example 313] was 4.65 nM; that for `CC(C)(C(=O)Nc1nncs1)[C@H]1c2ccccc2Oc2nc(-c3ccc(C(=O)N[C@H]4CCC[C@H]4C(N)=O)cc3)ccc21` [Example 360] was 154 nM.
With `CC(C)(C(=O)Nc1nncs1)C1c2ccccc2Oc2cc(-c3ncc(C(=O)O)cn3)ccc21` (stereo not drawn) [Example 108], the inhibitory constant (Ki) amounted to 13.6 nM.
Turning to `CC(C)(C(=O)Nc1nncs1)[C@H]1c2ccccc2Oc2nc(-c3ccc(C(=O)N4CCNC(=O)C4)cc3)ccc21` [Example 296], the Ki stood at 19.1 nM.
Still for that read-out and setting: the value for `CN1CCN(C(=O)c2ccc(-c3ccc4c(n3)Oc3ccccc3[C@@H]4C(C)(C)C(=O)Nc3nncs3)cc2)CC1` [Example 256] was 180 nM.
Same read-out and setting: the value for `CN(C)C(=O)c1ccc(-c2ccc3c(n2)Oc2ccccc2[C@@H]3C(C)(C)C(=O)Nc2nccs2)cc1` [Example 245] was 1.01 nM; that for `CC(C)(C(=O)Nc1nncs1)[C@H]1c2ccccc2Oc2nc(-c3ccc(C(=O)N4CCC[C@@H](O)C4)cc3)ccc21` [Example 284] was 17.4 nM.
On the same count and under the same terms, the same measure for `CCCNC(=O)c1ccc(-c2ccc3c(n2)Oc2ccccc2[C@@H]3C(C)(C)C(=O)Nc2nncs2)cc1` [Example 358]: 40.5 nM; for `CC(C)(C(=O)Nc1nncs1)[C@H]1c2ccccc2Oc2nc(-c3ccc(OC4CCOCC4)c(F)c3)ccc21` [Example 242]: 412 nM; for `CC(C)(C(=O)Nc1nncs1)C1c2ccccc2Oc2cc(-c3ccc(C(=O)O)cn3)ccc21` (stereo not drawn) [Example 101]: 19.8 nM.
For the compound `CC(C)(C)OC(=O)N1CC=C(c2ccc3c(n2)Oc2ccccc2[C@@H]3C(C)(C)C(=O)Nc2nncs2)CC1` [Example 406], the Ki is 176 nM.
Still for that read-out and setting: the same measure for `CC(C)NC(=O)c1ccc(-c2ccc3c(n2)Oc2ccccc2[C@@H]3C(C)(C)C(=O)Nc2nncs2)cc1` [Example 353]: 13 nM; for `CN(C)C(=O)c1ccc(-c2ccc3c(n2)Oc2ccccc2[C@@H]3C(C)(C)C(=O)Nc2nncs2)s1` [Example 462]: 3.78 nM.
On to `CC(C)(C(=O)Nc1nncs1)C1c2ccccc2Oc2cc(NC(=O)Nc3nccs3)ccc21` (stereo not drawn) [Example 123], for which the inhibition constant Ki is 17.8 nM.
On the same count and under the same terms, the same measure for `CN(C)C(=O)c1ccc(-c2ccc3c(n2)Oc2ccccc2C3C(C)(C)C(=O)NCC(F)(F)F)cc1` (stereo not drawn) [Example 367]: 692 nM; for `CN(C)C(=O)c1ccc(-c2ccc3c(n2)Oc2ccccc2C3C(C)(C)C(=O)Nc2ncc[nH]2)cc1` (stereo not drawn) [Example 440]: 21 nM; for `CN(C)C(=O)c1ccc(-c2ccc3c(n2)Oc2ccccc2C3C(C)(C)C(=O)Nc2ncn[nH]2)cc1` (stereo not drawn) [Example 439]: 65.8 nM.
In the case of `CC(C)(C(=O)Nc1nncs1)C1c2ccccc2Oc2cc(-c3ccc(C(=O)O)s3)ccc21` (stereo not drawn) [Example 103], the inhibitory constant (Ki) worked out at 6.06 nM.
On the same count and under the same terms, the same measure for `CC(C)(C(=O)Nc1nncs1)[C@H]1c2ccccc2Oc2nc(-c3ccc(C(=O)N4CCCC(=O)CC4)cc3)ccc21` [Example 322]: 18.9 nM; for `CC(C)(C(=O)Nc1nncs1)[C@H]1c2ccccc2Oc2nc(-c3ccc(C(=O)N4CCC(O)CC4)cc3)ccc21` [Example 269]: 14.7 nM.
Turning to `CCCN(C)C(=O)c1ccc(-c2ccc3c(n2)Oc2ccccc2[C@@H]3C(C)(C)C(=O)Nc2nncs2)cc1Cl` [Example 346], the Ki is 3.04 nM.
Regarding `CC(C)(C(=O)Nc1nncs1)[C@H]1c2ccccc2Oc2nc(N3CCC(C(=O)N4CCCC4)CC3)ccc21` [Example 403], the Ki came out at 61.2 nM.
Still for that read-out and setting: the value for `CC(C)(C(=O)Nc1nncs1)[C@H]1c2ccccc2Oc2nc(-c3ccc(C(=O)N4CCC[C@H]4C(N)=O)cc3)ccc21` [Example 282] was 13.4 nM; that for `CC(C)NS(=O)(=O)c1ccc(-c2ccc3c(n2)Oc2ccccc2[C@@H]3C(C)(C)C(=O)Nc2nncs2)cc1` [Example 236] was 9.44 nM; that for `COc1cc(-c2ccc3c(n2)Oc2ccccc2[C@@H]3C(C)(C)C(=O)Nc2nncs2)ccc1C(=O)N1CCCCC1` [Example 265] was 126 nM.
Same read-out and setting: the value for `CN(C)C(=O)c1ccc(-c2ccc3c(n2)Oc2ccccc2C3C(C)(C)C(=O)NC(C)(C)C)cc1` (stereo not drawn) [Example 362] was 805 nM; that for `CCCCN(C)C(=O)c1ccc(-c2ccc3c(n2)Oc2ccccc2[C@@H]3C(C)(C)C(=O)Nc2nncs2)cc1` [Example 292] was 10.8 nM.
On the same count and under the same terms, the same measure for `CC(C)(C(=O)Nc1nncs1)[C@H]1c2ccccc2Oc2nc(-c3ccc(C(=O)NC4CCCC4)cc3)ccc21` [Example 351]: 147 nM; for `CC(C(=O)Nc1nncs1)C1c2ccccc2Oc2nc(-c3ccc(C(=O)N(C)C)cc3)ccc21` (mixture of isomers) [Example 482]: 45 nM; for `CC(C)(C(=O)Nc1nncs1)[C@H]1c2ccccc2Oc2nc(-c3ccc(C(=O)NCCCO)cc3)ccc21` [Example 359]: 30.1 nM.
Turning to `O=C(c1ccc(-c2ccc3c(n2)Oc2ccccc2C3C2(C(=O)Nc3nncs3)CCC2)cc1)N1CCOCC1` (single isomer, unassigned) [Example 487], the inhibitory constant (Ki) was above 1150 nM.
Same read-out and setting: the same measure for `CC(C)(C(=O)Nc1nncs1)[C@H]1c2ccccc2Oc2nc(-c3ccc(S(=O)(=O)N4CCOCC4)cc3)ccc21` [Example 233]: 11.3 nM.
On the same count and under the same terms, the same measure for `CN(C)C(=O)n1cc(-c2ccc3c(n2)Oc2ccccc2[C@@H]3C(C)(C)C(=O)Nc2nncs2)cn1` [Example 453]: 17.6 nM; for `CC(=O)c1ccc2c(n1)Oc1ccccc1[C@@H]2C(C)(C)C(=O)Nc1nncs1` [Example 397]: 40.9 nM; for `COC[C@@H]1CCCN1C(=O)c1ccc(-c2ccc3c(n2)Oc2ccccc2[C@@H]3C(C)(C)C(=O)Nc2nncs2)cc1` [Example 272]: 12.6 nM.
The same measure, in the same setting: the same measure for `CC(C)(C(=O)Nc1nncs1)[C@H]1c2ccccc2Oc2nc(-c3ccc(C(=O)O)c(F)c3)ccc21` [Example 213]: 7.95 nM; for `CC(C)(C(=O)Nc1nncs1)[C@H]1c2ccccc2Oc2nc(-c3ccc(C(=O)N4CCCOCC4)cc3)ccc21` [Example 323]: 3.69 nM; for `CCN(CC)C(=O)c1ccc(-c2ccc3c(n2)Oc2ccccc2[C@@H]3C(C)(C)C(=O)Nc2nncs2)cc1OC` [Example 262]: 18.2 nM.
In the case of `Cc1nnc(NC(=O)C(C)(C)[C@H]2c3ccccc3Oc3nc(-c4ccc(OC(C)C)c(Cl)c4)ccc32)s1` [Example 476], the Ki was found to be 16.4 nM.
On the same count and under the same terms, the value for `CC(C)(C(=O)Nc1nncs1)[C@H]1c2ccccc2Oc2nc(-c3ccc(C(=O)N4CCC(c5ccccc5)CC4)cc3)ccc21` [Example 281] was 33.5 nM; that for `CC(C)C(=O)N1CC=C(c2ccc3c(n2)Oc2ccccc2[C@@H]3C(C)(C)C(=O)Nc2nncs2)CC1` [Example 409] was 78.2 nM.
Regarding `CC1(C)CCCN(C(=O)c2ccc(-c3ccc4c(n3)Oc3ccccc3[C@@H]4C(C)(C)C(=O)Nc3nncs3)cc2)C1` [Example 271], the Ki is 218 nM.

These data come from US8034940B2, “Modulators of glucocorticoid receptor, AP-1, and/or NF-κB activity and use thereof” (Bristol-Myers Squibb Company, priority 2006, dated 2011).
